Data reported in PubChem BioAssay AID493102 (Broad Institute, 2011).

Test system: SK-MEL-5 TRPM1-promoter luciferase reporter, 24 h
Assay: TRPM1 promoter luciferase signal decrease, dose response, MITF inhibitor project, cell-based, SK-MEL-5, cherry-picked, set 4 (AID 493102);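 further: actives lower the luciferase signal so the potency reflects inhibition of reporter expression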

COc1cccc(/C=N/Nc2ncnc3c2ncn3Cc2ccccc2)c1O
AC50: 4.6 µM

CCS(=O)(=O)c1ccc(N=Nc2ccc(O)c3ncccc23)c(OC)c1
AC50: 9.23 µM

COc1cnc(-c2ccccn2)nc1NC(C)C
AC50: 12.4 µM

CCCCCCn1c(=O)c(C(=O)Nc2cnccn2)c(O)c2ccccc21
AC50: 3.68 µM

COC(=O)c1ccc(Nc2cc(C)nc3ccc(C)cc23)cc1
AC50: 6.85 µM

Cc1c(C#N)c(NC(=O)CCl)n(Cc2ccc(F)cc2)c1C
AC50: 7.16 µM

CCn1c(C)cc(C(=O)CN2C(=O)c3ccccc3S2(=O)=O)c1C
AC50: 1.99 µM

O=[N+]([O-])c1cc(CN2CCN(c3ccccc3)CC2)c(O)c2ncccc12
AC50: 8.3 µM

O=C(Nc1ccc(N2CCN(C(=O)c3ccccc3)CC2)cc1)c1ccc([N+](=O)[O-])o1
AC50: 17.9 µM

C[C@H]1CCC[C@]2(C)C[C@H]3OC(=O)C(CN4CCCCCC4)[C@H]3C=C12 (stereo partly drawn)
AC50: 13.9 µM

CCN1CCN(c2ccc(S(=O)(=O)N3CCCCC3)cc2NC(=O)/C=C/c2ccc([N+](=O)[O-])cc2)CC1
AC50: 7.51 µM

O=C(Nc1nc(-c2ccccn2)cs1)c1ccc([N+](=O)[O-])o1
AC50: 10.8 µM

O=C(COc1ccc(Cl)cc1Cl)Nc1ccccn1
AC50: 2.19 µM

CCc1cc[n+](C2=C([O-])c3ccccc3C(=O)/C2=N\S(=O)(=O)c2cccs2)cc1
AC50: 1.15 µM

CS(=O)(=O)N1CCN(c2ccc(NC(=O)c3ccc([N+](=O)[O-])o3)cc2)CC1
AC50: 4.92 µM

COc1ccc(C(=O)/C=C/C(=O)N(CC(=O)NC2CCCCC2)CC2CCCO2)c(O)c1 (stereo not drawn)
AC50: 4.01 µM

O=C(CNC(=O)c1cccc(F)c1)N/N=C/c1ccc([N+](=O)[O-])s1
AC50: 7.45 µM

O=C(O)c1cc(N/N=C/C(Cl)=C/c2ccccc2)ccc1Cl
AC50: 10.4 µM

O=C(NCc1ccco1)c1nc2c(nnn2Cc2ccccc2Cl)c(=O)[nH]1
AC50: 14.4 µM

COc1ccc(CNCCC(c2ccc(F)cc2)c2ccc(OC)cc2)cc1 (stereo not drawn)
AC50: 9.89 µM

O=C(NC1=C(Nc2ccc(Cl)cc2)C(=O)c2ccccc2C1=O)c1ccccc1
AC50: 0.93 µM

CC(=O)Nc1sc(C)c(C)c1C(=O)OCC(=O)N(CC(C)C)c1c(N)n(Cc2ccccc2)c(=O)[nH]c1=O
AC50: 5.29 µM

O=C(N/N=C/c1ccc([N+](=O)[O-])o1)c1sc2ccccc2c1Cl
AC50: 4.61 µM

O=C1Nc2cc(C(=O)NCCN3CCCCCC3)ccc2S/C1=C\c1ccccc1
AC50: 9.78 µM

Cc1oc(-c2ccc(Cl)cc2)nc1CN1CCC(C(=O)NCCCN2CCCC(C)C2)CC1 (stereo not drawn)
AC50: 13.2 µM

COc1ccc(C(=O)/C=C/C(=O)N(CC(=O)NC2CCCCC2)Cc2ccc(F)cc2)c(O)c1
AC50: 5.45 µM

CS(=O)(=O)c1nc(-c2ccc(F)cc2)cc(C(F)(F)F)n1
AC50: 7.2 µM

O=C(CCl)Nc1ccc(-c2ccccc2)cc1
AC50: 7.3 µM

COCCn1c(C)cc(C(=O)COC(=O)c2ccccc2Br)c1C
AC50: 1.14 µM

O=C(Cn1ncc(Cl)c(Cl)c1=O)N1CCc2ccccc21
AC50: 6.1 µM

O=C(Cn1ncc(Cl)c(Cl)c1=O)N1CCOCC1
AC50: 9.82 µM

Nc1ncnc(Sc2ncccn2)c1[N+](=O)[O-]
AC50: 11.7 µM

O=C(O)c1ccc(N/N=C/c2ccc3nccnc3c2)cc1
AC50: 0.696 µM

O=C(Nc1ccc(OC(F)(F)F)cc1)c1[nH]ncc1[N+](=O)[O-]
AC50: 0.601 µM

Cc1ccc(S(=O)(=O)Nc2cccc3cccnc23)cc1
AC50: 5.55 µM

CC(=O)CSc1ccc(-c2nc3cc(C)c(C)cc3[nH]2)cn1
AC50: 3.67 µM

CC(=O)c1ccc(S(=O)(=O)N2CCN(C(=O)/C=C/c3ccc4ccccc4n3)CC2)cc1
AC50: 12 µM

COC(=O)c1ccc(-n2c(C)cc(C(=O)CCl)c2C)cc1
AC50: 7.46 µM

COc1cc(OC)cc(C(=O)N[C@H](C(=O)Nc2nc3ccccc3[nH]2)C(C)C)c1
AC50: 2.44 µM

Cc1c(N=C2C=CC(=O)c3ccccc32)c(=O)n(-c2ccccc2)n1C
AC50: 5.26 µM

N#C/C(=C(/O)CCl)c1nc2ccccc2[nH]1
AC50: 4.6 µM

O=C(Nc1nc2cc3c(cc2s1)OCO3)C1=COCCO1
AC50: 3.77 µM

N/C(=N\OC(=O)c1ccccc1)c1ccccn1
AC50: 11.9 µM

Cc1ccc(C(=O)N/C(=C\c2ccc(-c3ccccc3[N+](=O)[O-])o2)C(=O)NCCCN(C)C)cc1
AC50: 3.28 µM

COc1cccc(-c2nnc3n2N=C(C(C)(C)C)CS3)c1
AC50: 4.82 µM

CCOc1ccc(C(=O)Nc2cccc(C(=O)O)c2C)cc1Cl
AC50: 8.56 µM

COCCNC(=O)/C(C#N)=C/c1cccc(/C=C(\C#N)C(=O)NCCOC)c1
AC50: 12.7 µM

COc1ccccc1C(=O)Nc1nc(-c2ccc(S(=O)(=O)N3CCOCC3)cc2)cs1
AC50: 4.34 µM

Cc1ccc(NC(=O)CN(C)C(=O)Cn2ncc(Cl)c(Cl)c2=O)cc1
AC50: 9.16 µM

CC1CC(C)C[N+](=C2C=C(N3CCCC3)CC(C)(C)C2)C1 (stereo not drawn)
AC50: 2.24 µM

CC1CCN(CC(CS(=O)(=O)c2ccc([N+](=O)[O-])cc2)N2CCC(C)CC2)CC1 (stereo not drawn)
AC50: 6.62 µM

Cc1ccc(S(=O)(=O)/N=C2\C(=O)c3ccccc3C([O-])=C2n2cc[n+](CCC(C)C)c2)cc1
AC50: 4.11 µM

Cc1c(C#N)c(NC(=O)CCl)n(Cc2cccs2)c1C
AC50: 7.06 µM

CN(C)c1ccc(/C=C2\SC(=O)N(CCc3nnc(N)s3)C2=O)cc1
AC50: 2.54 µM

Cc1cc(Br)ccc1NC(=O)CNC(=O)Cn1ncc(Cl)c(Cl)c1=O
AC50: 7.47 µM

Cn1nnnc1Sc1ncnc2scc(-c3ccc(F)cc3)c12
AC50: 8.1 µM

Cc1ccc(NC(=O)c2ncn(CCCN[C@H](C)c3cccc4ccccc34)n2)cc1C
AC50: 22.7 µM

CCOC(=O)c1cc([N+](=O)[O-])c([N+](=O)[O-])cc1NC(C)=O
AC50: 24.2 µM

O=C(/C=C/c1cccc([N+](=O)[O-])c1)c1cccs1
AC50: 15.3 µM

Cc1cc(C)n(-c2ccc(C(=O)Nc3ccc(C)c(S(=O)(=O)N4CCOCC4)c3)cc2)n1
AC50: 4.54 µM

Cc1ccc(C(C)C)c(OCc2nn(CC(=O)c3ccc(Cl)cc3)c3[n+]2CCCCC3)c1
AC50: 9.83 µM

Cc1ccc(-n2[nH]c(=O)c(-c3ccccn3)c2C)cc1
AC50: 3.23 µM

O=C(Nc1ccccc1)NN(C(=O)CCl)c1ccccc1
AC50: 8.5 µM

O=[N+]([O-])c1cc(Cl)cc(/C=N\Nc2ccccn2)c1O
AC50: 4.49 µM

CC(C)N1C/C(=C/c2cccnc2)C(=O)/C(=C/c2cccnc2)C1
AC50: 14.2 µM

COC(=O)C1=C(C)N(Cc2ccccc2)C(=NCC(C)C)N[C@H]1c1cccc(C(F)(F)F)c1
AC50: 15 µM

BrC(=C\c1ccccc1)/C=N/n1cnnc1
AC50: 7.26 µM

Cc1cc(-n2c(C)cc(C(=O)CCl)c2C)no1
AC50: 5.5 µM
